The text below walks through data of patent US11505835B2, “Method for determining the identity and antimicrobial susceptibility of a microorganism” (Q-linea AB, priority 2014, dated 2022).

Assay [1] deals with E. coli. The experiment in a line: MIC with Macrobroth dilution. The assay is classed as cell-based. The conditions noted are these: reference method; for MIC: Escherichia coli. In general terms: In broth dilution the organism is exposed to a series of concentrations in liquid medium.
In assay [2] the test system is E. coli. Kind of assay: AST by counting individual bacteria in a flow cytometry type instrument (Aquila 400); MIC from differential growth relative to positive control. It counts as cell-based. On the procedure:
The sample was enriched for bacteria and at the same time the culture media was changed, in this case to Mueller-Hinton media (MH-media). E. coli bacteria were recovered via filtration through a 0.2 μm filter and the recovered bacteria were resuspended in MH-media to a concentration of approximately 10^8 CFU/ml in Müller Hinton broth before being diluted to approximately 10^6 CFU/ml in Müller Hinton Broth. Antibiotic solutions were prepared in a series of 2:1 serial dilutions in Müller Hinton broth at 10×test concentrations. The range of antibiotic concentrations was chosen based on identity of the bacteria and the antibiotic. […] A series of eight different concentrations was selected based on known clinical MIC values. Eight sample tubes containing 100 μl antibiotic solution at eight different concentrations and 800 μl Müller Hinton broth were prepared. One additional tube contains 900 μl Müller Hinton broth and no antibiotic as positive control. 100 μl bacterial suspension (10^6 CFU/ml) was added to all nine tubes. A negative control sample comprising 1000 μl Müller Hinton broth (i.e. no bacteria) is prepared as negative control. All tubes were incubated at 35° C. and samples were taken after 0, 4, 6 and 24 hours. Bacterial samples were prepared for counting as in Example 2. Bacterial AST profiles were determined using a flow cytometry based counting of individual bacteria in an Aquila 400 instrument (Q-linea AB, Sweden). Aquila 400 analysis was performed using the alexa 488 laser. […] MIC values for each antibiotic at different time points and cut-off values were calculated based on the differential bacterial growth.
(Flow cytometry measures light scatter and fluorescence of single cells or particles in a stream.)

For assay [3], the system named is E. coli. The following applies: determined by another lab; cited from earlier work.
The mark [4] stands for this setting: Escherichia coli, 4 h, cut-off 5%, 4 hours, Müller Hinton broth, 35° C., read-out: MIC.
The mark [5] stands for this setting: Escherichia coli, 4 h, cut-off 10%, 4 hours, Müller Hinton broth, 35° C., read-out: MIC.
Setting [6] is: Escherichia coli, 4 h, cut-off 15%, 4 hours, Müller Hinton broth, 35° C., read-out: MIC.
Where [7] appears, read: Escherichia coli, 4 h, cut-off 20%, 4 hours, Müller Hinton broth, 35° C., read-out: MIC.
[8] abbreviates: Escherichia coli, 6 h, cut-off 5%, 6 hours, Müller Hinton broth, 35° C., read-out: MIC.
Setting [9] is: Escherichia coli, 6 h, cut-off 10%, 6 hours, Müller Hinton broth, 35° C., read-out: MIC.
The mark [10] stands for this setting: Escherichia coli, 6 h, cut-off 15%, 6 hours, Müller Hinton broth, 35° C., read-out: MIC.
The mark [11] stands for this setting: Escherichia coli, 6 h, cut-off 20%, 6 hours, Müller Hinton broth, 35° C., read-out: MIC.
[12] abbreviates: Escherichia coli, 24 h, cut-off 5%, 24 hours, Müller Hinton broth, 35° C., read-out: MIC.
Where [13] appears, read: Escherichia coli, 24 h, cut-off 10%, 24 hours, Müller Hinton broth, 35° C., read-out: MIC.
Setting [14] is: Escherichia coli, 24 h, cut-off 15%, 24 hours, Müller Hinton broth, 35° C., read-out: MIC.
The mark [15] stands for this setting: Escherichia coli, 24 h, cut-off 20%, 24 hours, Müller Hinton broth, 35° C., read-out: MIC.

Values after ≈ are worked out from the molar mass of the structure shown.

As usually defined, the MIC is the least concentration at which growth counts as inhibited. In the case of `O=C(O)c1cn(C2CC2)c2cc(N3CCNCC3)c(F)cc2c1=O` [Ciprofloxacin], the MIC is 0.016 µg/mL (≈ 0.0483 µM) with E. coli [1]; 0.016 µg/mL (≈ 0.0483 µM) with E. coli [2] (setting [4]); 0.008 µg/mL (≈ 0.0241 µM) in the assay with E. coli [2] (setting [5]); 0.008 µg/mL (≈ 0.0241 µM) in the assay on E. coli [2] (setting [6]); 0.008 µg/mL (≈ 0.0241 µM) in the assay on E. coli [2] (setting [7]); 0.008 µg/mL (≈ 0.0241 µM) with E. coli [2] (setting [8]). Moreover, the MIC in the assay with E. coli [2] (setting [9]) came to 0.008 µg/mL (≈ 0.0241 µM); in the assay with E. coli [2] (setting [10]), 0.008 µg/mL (≈ 0.0241 µM); with E. coli [2] (setting [11]), 0.004 µg/mL (≈ 0.0121 µM); in the assay on E. coli [2] (setting [12]), 0.008 µg/mL (≈ 0.0241 µM); with E. coli [2] (setting [13]), 0.008 µg/mL (≈ 0.0241 µM); with E. coli [2] (setting [14]) it was 0.008 µg/mL (≈ 0.0241 µM). Also, the minimum inhibitory concentration (MIC) in the assay on E. coli [2] (setting [15]) came to 0.008 µg/mL (≈ 0.0241 µM). Besides, the “MIC with E-test” value in the assay on E. coli [3] was ≤ 0.03 µg/mL.

With `CO/N=C(\C(=O)N[C@@H]1C(=O)N2C(C(=O)O)=C(COC(C)=O)CS[C@H]12)c1csc(N)n1` [Cefotaxime], the MIC in the assay with E. coli [2] (setting [6]) came to 0.06 µg/mL (≈ 0.132 µM); in the assay on E. coli [2] (setting [7]), 0.06 µg/mL (≈ 0.132 µM); in the assay with E. coli [2] (setting [8]), 0.06 µg/mL (≈ 0.132 µM); in the assay with E. coli [2] (setting [9]), 0.06 µg/mL (≈ 0.132 µM); with E. coli [2] (setting [10]) it was 0.03 µg/mL (≈ 0.0659 µM); in the assay on E. coli [2] (setting [11]), 0.03 µg/mL (≈ 0.0659 µM). Further, the minimum inhibitory concentration (MIC) in the assay on E. coli [2] (setting [14]) and with E. coli [2] (setting [15]) was 0.06 µg/mL (≈ 0.132 µM) in each case. Also, the “MIC with E-test” value with E. coli [3] is ≤ 0.5 µg/mL.

Consider `C[C@@H](O)[C@H]1C(=O)N2C(C(=O)O)=C(S[C@@H]3CN[C@H](C(=O)N(C)C)C3)[C@H](C)[C@H]12` [Meropenem], for which the minimum inhibitory concentration (MIC) against E. coli [1] is 0.25 to 0.5 µg/mL (≈ 0.652 to 1.3 µM); in the assay on E. coli [2] (setting [7]) it was 0.5 µg/mL (≈ 1.3 µM); with E. coli [2] (setting [10]), 0.5 µg/mL (≈ 1.3 µM); with E. coli [2] (setting [11]), 0.25 µg/mL (≈ 0.652 µM); against E. coli [2] (Escherichia coli, 24 h), 0.125 µg/mL (≈ 0.326 µM); in the assay with E. coli [2] (setting [12]), 0.5 µg/mL (≈ 1.3 µM). Moreover, the values for the minimal inhibitory concentration (MIC) in the assay with E. coli [2] (setting [13]) and in the assay on E. coli [2] (setting [14]) were 0.5 µg/mL (≈ 1.3 µM) and 0.25 µg/mL (≈ 0.652 µM), respectively. In addition, the “MIC with E-test” value in the assay on E. coli [3] is ≤ 0.25 µg/mL.

In the case of `CC(C)(O/N=C(\C(=O)N[C@@H]1C(=O)N2C(C(=O)[O-])=C(C[n+]3ccccc3)CS[C@H]12)c1csc(N)n1)C(=O)O` [Ceftazidime], the minimal inhibitory concentration (MIC) in the assay with E. coli [1], in the assay with E. coli [2] (setting [4]), in the assay with E. coli [2] (setting [5]), in the assay on E. coli [2] (setting [12]), in the assay on E. coli [2] (setting [13]) and in the assay with E. coli [2] (setting [14]) was 0.25 µg/mL (≈ 0.457 µM) in each case. Moreover, in the assay on E. coli [2] (setting [15]), the MIC was 0.25 µg/mL (≈ 0.457 µM). Also, the “MIC with E-test” value in the assay on E. coli [3] was ≤ 0.5 µg/mL.

As to Gentamicin, the “MIC with Macrobroth dilution” value against E. coli [1] lay in the range of 0.5 to 1 µg/mL. The MIC is 1 µg/mL in the assay on E. coli [2] (cut-off 5%, 4 hours, Müller Hinton broth, 35° C.); 0.5 µg/mL in the assay with E. coli [2] (cut-off 5%, 6 hours, Müller Hinton broth, 35° C.); 1 µg/mL against E. coli [2] (cut-off 5%, 24 hours, Müller Hinton broth, 35° C.); 0.5 µg/mL against E. coli [2] (cut-off 10%, 4 hours, Müller Hinton broth, 35° C.); 0.5 µg/mL against E. coli [2] (cut-off 10%, 6 hours, Müller Hinton broth, 35° C.); 1 µg/mL against E. coli [2] (cut-off 10%, 24 hours, Müller Hinton broth, 35° C.). Moreover, the MIC came to 0.5 µg/mL against E. coli [2] (cut-off 15%, 4 hours, Müller Hinton broth, 35° C.); 0.5 µg/mL against E. coli [2] (cut-off 15%, 6 hours, Müller Hinton broth, 35° C.); 1 µg/mL against E. coli [2] (cut-off 15%, 24 hours, Müller Hinton broth, 35° C.); 0.5 µg/mL with E. coli [2] (cut-off 20%, 4 hours, Müller Hinton broth, 35° C.); 0.5 µg/mL against E. coli [2] (cut-off 20%, 6 hours, Müller Hinton broth, 35° C.); 1 µg/mL in the assay with E. coli [2] (cut-off 20%, 24 hours, Müller Hinton broth, 35° C.). In addition, in the assay on E. coli [3], the “MIC with E-test” value was 1 µg/mL.
